Eight compounds from PubChem BioAssay (NCI) can be followed below.

Some test systems named below: COLO 205 colon; MALME-3M melanoma; NCI/ADR-RES ovarian; SF-295 CNS; MDA-N; IGROV1 ovarian; HOP-92 NSCLC; NCI-H23 lung; MOLT-4 leukemia; NCI-H460 lung; HOP-62 NSCLC; SF-268 CNS; CAKI-1 renal; TK-10 renal; T-47D breast; MCF7 breast; SF-539 CNS; SNB-19 CNS; K-562 leukemia.
Common to all, as to experiment: growth of human tumour cells (NCI), 48 h

The structures appear in SMILES notation.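 96-well plates; 48 h exposure; 5 concentrations. Endpoints by linear interpolation between flanking doses. Not reached: highest tested concentration assigned. TGI: total growth inhibition.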

In the case of `O=c1oc2ccccc2c(O)c1C(c1ccc2c(c1)Cc1ccccc1-2)c1c(O)c2ccccc2oc1=O`, the TGI with COLO 205 colon is 37.2 µM; in the assay with MALME-3M melanoma, 71.4 µM; in the assay with NCI/ADR-RES ovarian, over 100 µM; in the assay with SF-295 CNS, 57.4 µM; with MDA-N it was 36.7 µM; with IGROV1 ovarian it was over 100 µM. Further, the TGI with HOP-92 NSCLC is 49.3 µM; with NCI-H23 lung, 69.5 µM; in the assay on MOLT-4 leukemia, over 100 µM; in the assay on NCI-H460 lung, 62.4 µM; with HOP-62 NSCLC it was over 100 µM; in the assay with SF-268 CNS, 68.4 µM. In addition, the TGI is 41.5 µM in the assay with CAKI-1 renal; over 100 µM in the assay with TK-10 renal; over 100 µM in the assay with T-47D breast; 51.1 µM in the assay on MCF7 breast; 43.5 µM in the assay with SF-539 CNS; over 100 µM in the assay on SNB-19 CNS.
Take `CCCCCCCCCCCCCCCC(=O)OC(COC(C)=O)CO[P+](=O)O` (stereo not given): the TGI in the assay on COLO 205 colon was over 100 µM; in the assay with MALME-3M melanoma it was over 100 µM; in the assay with NCI/ADR-RES ovarian, 80.8 µM; in the assay on SF-295 CNS, 35.4 µM; in the assay on MDA-N, over 100 µM; in the assay with IGROV1 ovarian, 59.6 µM. Further, the TGI with HOP-92 NSCLC was 34 µM; in the assay on K-562 leukemia, over 100 µM; in the assay on MOLT-4 leukemia it was 80.7 µM; in the assay with NCI-H460 lung it was over 100 µM; in the assay on SF-268 CNS it was 49.6 µM; in the assay on CAKI-1 renal it was over 100 µM. Besides, the TGI is over 100 µM in the assay with TK-10 renal; over 100 µM in the assay with T-47D breast; over 100 µM in the assay on MCF7 breast; 53.3 µM with SF-539 CNS; over 100 µM with SNB-19 CNS.
Regarding `O=C(O)C1(Cc2ccc3c(c2)CCC3)Cc2ccccc2C1=O` (stereo not given), the TGI with COLO 205 colon, in the assay with MALME-3M melanoma, with NCI/ADR-RES ovarian, in the assay on SF-295 CNS, with MDA-N and in the assay on IGROV1 ovarian was over 100 µM in each case. Moreover, the TGI in the assay on HOP-92 NSCLC was 87.3 µM; with K-562 leukemia it was over 100 µM; with NCI-H23 lung it was over 100 µM; in the assay on MOLT-4 leukemia, over 100 µM; with NCI-H460 lung it was over 100 µM; in the assay on HOP-62 NSCLC it was over 100 µM. Besides, the TGI in the assay with SF-268 CNS, with TK-10 renal, with T-47D breast, in the assay with MCF7 breast, in the assay with SF-539 CNS and in the assay with SNB-19 CNS was over 100 µM throughout.
Take `CC1(C)CCC[C@@]2(C)C1C(=O)[C@@H]1O[C@]1(C)[C@@H]2CO` (stereo not given in full): the TGI with COLO 205 colon was 85.1 µM; in the assay with MALME-3M melanoma, over 100 µM; in the assay on NCI/ADR-RES ovarian, over 100 µM; in the assay with SF-295 CNS it was over 100 µM; in the assay on MDA-N, over 100 µM; with IGROV1 ovarian, over 100 µM. The TGI in the assay on HOP-92 NSCLC is 88 µM; in the assay with K-562 leukemia it was over 100 µM; in the assay on NCI-H23 lung, 67.9 µM; in the assay with MOLT-4 leukemia, over 100 µM; in the assay on NCI-H460 lung, over 100 µM; in the assay with HOP-62 NSCLC it was over 100 µM. Also, the TGI in the assay on SF-268 CNS, with TK-10 renal, with T-47D breast, in the assay with MCF7 breast, in the assay with SF-539 CNS and in the assay with SNB-19 CNS was over 100 µM in each case.
Take `COc1ccc(N=Nc2ccc3oc(=O)c(C(=O)Nc4ccc(Cl)cc4)cc3c2)cc1`: the TGI in the assay on COLO 205 colon, with MALME-3M melanoma, with NCI/ADR-RES ovarian, with SF-295 CNS, in the assay with MDA-N and in the assay on IGROV1 ovarian was over 10 µM throughout. Further, the TGI with HOP-92 NSCLC, in the assay on NCI-H23 lung, with MOLT-4 leukemia, in the assay with NCI-H460 lung, with HOP-62 NSCLC and in the assay with SF-268 CNS was over 10 µM throughout. Besides, the TGI in the assay on CAKI-1 renal, in the assay on TK-10 renal, with T-47D breast, with MCF7 breast and in the assay with SF-539 CNS was over 10 µM throughout.
On to `O[C@H]1[C@H]2[C@H](O)C[C@H](CCOCc3ccccc3)CN2C[C@H]1O`, for which the TGI with COLO 205 colon, in the assay with MALME-3M melanoma, in the assay on NCI/ADR-RES ovarian, in the assay with SF-295 CNS, with MDA-N and with IGROV1 ovarian was over 100 µM throughout. The TGI in the assay with HOP-92 NSCLC, in the assay with K-562 leukemia, in the assay with NCI-H23 lung, with MOLT-4 leukemia, in the assay with NCI-H460 lung and with SF-268 CNS was over 100 µM each time. In addition, the TGI with CAKI-1 renal, in the assay with T-47D breast, in the assay with MCF7 breast, in the assay with SF-539 CNS and in the assay on SNB-19 CNS was over 100 µM in each case.
In the case of `COc1ccc2c(c1)CCC1=C/C(=N\NC(N)=O)CCC12C` (stereo not given), the TGI in the assay with COLO 205 colon, in the assay on MALME-3M melanoma, in the assay on NCI/ADR-RES ovarian, with SF-295 CNS, with MDA-N and in the assay on IGROV1 ovarian was over 10 µM in each case. Moreover, the TGI with HOP-92 NSCLC, in the assay with K-562 leukemia, with NCI-H23 lung, in the assay with MOLT-4 leukemia, in the assay on HOP-62 NSCLC and in the assay on SF-268 CNS was over 10 µM each time. Besides, the TGI in the assay with CAKI-1 renal, with TK-10 renal, in the assay with T-47D breast, with MCF7 breast, in the assay on SF-539 CNS and with SNB-19 CNS was over 10 µM each time.
As for `COc1ccc([C@]23CCN(S(=O)(=O)c4ccc(C)cc4)[C@H]2[C@H](CO)C2(CC3)OCC(C)(C)CO2)cc1OC`, the TGI in the assay with COLO 205 colon, with MALME-3M melanoma, in the assay on NCI/ADR-RES ovarian, in the assay on SF-295 CNS, in the assay with MDA-N and in the assay with IGROV1 ovarian was over 100 µM in each case. Moreover, the TGI in the assay with HOP-92 NSCLC, in the assay on K-562 leukemia, in the assay on NCI-H23 lung, in the assay on MOLT-4 leukemia, in the assay with NCI-H460 lung and in the assay with HOP-62 NSCLC was over 100 µM in each case. The TGI in the assay on CAKI-1 renal, with TK-10 renal, in the assay with T-47D breast, in the assay with MCF7 breast and in the assay with SNB-19 CNS was over 100 µM throughout.
